How the values were obtained:
[1] = Chemical stability (thermal, alkaline and acidic media); type: physicochemical
[2] = findings of SCCS; cited from earlier work

| Stability in alkaline media [1] | Thermal stability [1] | Degradation in alkaline conditions ([1]; above pH 10, ambient temperature) | Degradation at elevated temperatures ([1]; above pH 10 or below about pH 4, elevated temperatures, compared with ambient) | Degradation in acidic conditions ([1]; below about pH 4, ambient temperature) | SMILES | Allergenicity [2] |
| --- | --- | --- | --- | --- | --- | --- |
| unstable in alkaline media | thermally unstable | rapidly degraded | degradation proceeds even more rapidly | rapidly degraded | CC(=CCCC=O)CCCC(C)(C)O [(I), 5,9-dimethyl-9-hydroxy-decen-4-al] |  |
|  |  |  |  |  | CC(C)(O)CCCC1=CCC(C=O)CC1 (stereo not drawn) [cyclohexal, 4(4-hydroxy-4-methylpentyl) 3-cyclohexene carboxaldehyde] | allergenic concerns |
